Laboratory results: ChEMBL document CHEMBL1149094, “3-(4-Aroyl-1-methyl-1H-pyrrol-2-yl)-N-hydroxy-2-propenamides as a new class of synthetic histone deacetylase inhibitors. 3. Discovery of novel lead compounds through structure-based drug design and docking studies” (J Med Chem, 2004)

How the values were obtained:
Histone deacetylase 1 [1] = target: T1, Histone deacetylase 1 (Mus musculus, UniProt O09106); assay: Inhibition of mouse Histone deacetylase 1 (HDAC1) receptor
Histone deacetylase 1 [2] = target: T1, Histone deacetylase 1; assay: Inhibition of mouse HDAC1
Histone deacetylase HD2 [3] = target: T2, Histone deacetylase HD2 (Zea mays, UniProt Q94F81); assay: Inhibition of maize histone deacetylase 2
T2 sequence (Q94F81 whole entry): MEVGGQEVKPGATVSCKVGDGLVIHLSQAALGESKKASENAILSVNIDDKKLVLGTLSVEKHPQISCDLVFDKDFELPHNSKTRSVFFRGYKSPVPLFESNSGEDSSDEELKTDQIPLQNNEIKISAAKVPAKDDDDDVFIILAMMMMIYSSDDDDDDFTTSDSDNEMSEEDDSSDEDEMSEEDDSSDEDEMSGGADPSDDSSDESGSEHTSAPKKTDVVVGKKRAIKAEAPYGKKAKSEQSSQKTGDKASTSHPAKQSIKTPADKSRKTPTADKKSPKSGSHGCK

[4] = target: T3, Histone deacetylase HD2 (Zea mays) (UniProt Q94F81); assay: Percent inhibition of maize histone deacetylase 2 receptor at a dose of 30 uM
T3 sequence (whole entry): T2 sequence (Q94F81 whole entry)

Histone deacetylase HD2 [5] = target: T2, Histone deacetylase HD2; assay: Inhibition of maize Histone deacetylase 2

T1 sequence (O09106 whole entry): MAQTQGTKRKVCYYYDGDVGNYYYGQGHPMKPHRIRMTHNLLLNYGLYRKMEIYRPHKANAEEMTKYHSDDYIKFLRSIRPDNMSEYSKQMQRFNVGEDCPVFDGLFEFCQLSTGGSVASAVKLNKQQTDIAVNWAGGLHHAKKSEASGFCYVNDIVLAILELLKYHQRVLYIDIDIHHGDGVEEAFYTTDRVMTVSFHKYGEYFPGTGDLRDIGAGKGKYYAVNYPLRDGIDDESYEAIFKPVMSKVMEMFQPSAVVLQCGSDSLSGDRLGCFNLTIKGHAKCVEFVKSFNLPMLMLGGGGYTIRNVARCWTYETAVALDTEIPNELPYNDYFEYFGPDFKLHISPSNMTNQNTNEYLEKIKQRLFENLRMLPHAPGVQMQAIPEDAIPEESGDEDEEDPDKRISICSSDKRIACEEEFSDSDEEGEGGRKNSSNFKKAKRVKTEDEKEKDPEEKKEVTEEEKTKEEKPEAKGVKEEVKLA

Row | IC50 (Histone deacetylase 1 [1]) | IC50 (Histone deacetylase 1 [2]) | IC50 (Histone deacetylase HD2 [3]) | inhibition [4] | IC50 (Histone deacetylase HD2 [5]) | Compound
1 | 250 nM | 229 nM | 280 nM | 95% | 251 nM | Cn1c(/C=C/C(=O)NO)ccc1C(=O)c1ccccc1
2 | 780 nM | 776 nM | 50 nM | 97% | 50.1 nM | Cn1cc(/C=C/C(=O)NO)cc1C(=O)c1ccccc1
